Measured values published in patent publication US9890133B2 (priority 2011, dated 2018).
Converted amounts (≈) assume the structure as drawn.

Key:
Poliovirus 3 = test: microbe, parasite or virus in culture; format: cell-based; conditions: Enterovirus C, read-out: Poliovirus3 EC50
in vitro = conditions: human

| SMILES | EC50 (Poliovirus 3) | CC50 (in vitro) | CC50 (in vitro; Picorana CC50) |
| --- | --- | --- | --- |
| CC(C)c1ccc2c(c1)OC1(O)c3cccc(N)c3C(=O)C21NC(=O)c1ccnnc1 (stereo not drawn) [Example 276, N-(1-Amino-4b-hydroxy-7-isopropyl-10-oxo-9b,10-dihydro-4bH-indeno[1,2-b]benzofuran-9b-yl)pyridazine-4-carboxamide] | < 0.01 µg/mL | > 10 µg/mL | – |
| CC(C)c1ccc2c(c1)OC1(O)c3cccc(N)c3C(=O)C21NC(=O)[C@@H]1CSC(=O)N1 (stereo partly drawn) [Example 207, (4R)—N-(1-amino-4b-hydroxy-7-isopropyl-10-oxo-9b,10-dihydro-4bH-indeno[1,2-b]benzofuran-9b-yl)-2-oxothiazolidine-4-carboxamide] | < 0.01 µg/mL | > 10 µg/mL | – |
| CC(C)c1ccc2c(c1)OC1(O)c3cccc(N)c3C(=O)C21NC(=O)c1ccnc2ccccc12 (stereo not drawn) [Example 215, N-(1-Amino-4b-hydroxy-7-isopropyl-10-oxo-9b,10-dihydro-4bH-indeno[1,2-b]benzofuran-9b-yl)quinoline-4-carboxamide] | < 0.01 µg/mL | > 10 µg/mL | – |
| CC(C)c1ccc2c(c1)OC1(O)c3cccc(N)c3C(=O)C21NC(=O)c1nc2ccccc2[nH]1 (stereo not drawn) [Example 290, N-(1-Amino-4b-hydroxy-7-isopropyl-10-oxo-9b,10-dihydro-4bH-indeno[1,2-b]benzofuran-9b-yl)-1H-benzo[d]imidazole-2-carboxamide] | 0.032 µg/mL (≈ 0.0704 µM) | 4.51 µg/mL (≈ 9.92 µM) | 4.32 µg/mL (≈ 9.51 µM) |
| CC(C)c1ccc2c(c1)OC1(O)c3cccc(N)c3C(=O)C21NC(=O)c1ccc[nH]1 (stereo not drawn) [Example 233, N-(1-Amino-4b-hydroxy-7-isopropyl-10-oxo-9b,10-dihydro-4bH-indeno[1,2-b]benzofuran-9b-yl)-1H-pyrrole-2-carboxamide] | < 0.01 µg/mL | > 10 µg/mL | 31.9 µg/mL (≈ 79 µM) |
| CC(C)c1ccc2c(c1)OC1(O)c3cccc(N)c3C(=O)C21NC(=O)c1cc2ccccc2cn1 (stereo not drawn) [Example 248, N-(1-Amino-4b-hydroxy-7-isopropyl-10-oxo-9b,10-dihydro-4bH-indeno[1,2-b]benzofuran-9b-yl)isoquinoline-3-carboxamide] | 0.027 µg/mL (≈ 0.058 µM) | > 10 µg/mL | 4.99 µg/mL (≈ 10.7 µM) |
| CC(C)c1ccc2c(c1)OC1(O)c3cccc(N)c3C(=O)C21NC(=O)c1ccncc1Cl (stereo not drawn) [Example 251, N-(1-Amino-4b-hydroxy-7-isopropyl-10-oxo-9b,10-dihydro-4bH-indeno[1,2-b]benzofuran-9b-yl)-3-chloroisonicotinamide] | < 0.01 µg/mL | > 10 µg/mL | – |
| COc1ccccc1C(=O)NC12C(=O)c3c(N)cccc3C1(O)Oc1cc(C(C)C)ccc12 (stereo not drawn) [Example 183, N-(1-Amino-4b-hydroxy-7-isopropyl-10-oxo-9b,10-dihydro-4bH-indeno[1,2-b]benzofuran-9b-yl)-2-methoxybenzamide] | 0.014 µg/mL (≈ 0.0315 µM) | > 10 µg/mL | 8.54 µg/mL (≈ 19.2 µM) |
| CC(C)c1ccc2c(c1)OC1(O)c3cccc(N)c3C(=O)C21NC(=O)c1ncccc1Cl (stereo not drawn) [Example 246, N-(1-Amino-4b-hydroxy-7-isopropyl-10-oxo-9b,10-dihydro-4bH-benzo[d]indeno[1,2-b]furan-9b-yl)-3-chloropicolinamide] | < 0.01 µg/mL | > 10 µg/mL | 9.84 µg/mL (≈ 21.9 µM) |
| CC(C)c1ccc2c(c1)OC1(O)c3ccccc3C(=O)C21NC(=O)c1c[nH]c2ccccc12 (stereo not drawn) [Example 209, N-(4b-Hydroxy-7-isopropyl-10-oxo-9b,10-dihydro-4bH-indeno[1,2-b]benzofuran-9b-yl)-1H-indole-3-carboxamide] | 0.036 µg/mL (≈ 0.0821 µM) | 8.43 µg/mL (≈ 19.2 µM) | > 10 µg/mL |
| CC(C)c1ccc2c(c1)OC1(O)c3cccc(N)c3C(=O)C21NC(=O)c1cccnc1 (stereo not drawn) [Example 198, N-(1-Amino-4b-hydroxy-7-isopropyl-10-oxo-9b,10-dihydro-4bH-indeno[1,2-b]benzofuran-9b-yl)nicotinamide] | < 0.01 µg/mL | 27.9 µg/mL (≈ 67.3 µM) | > 50 µg/mL |
| CC(C)c1ccc2c(c1)OC1(O)c3cccc(N)c3C(=O)C21NC(=O)c1ccc2ncccc2c1 (stereo not drawn) [Example 203] | < 0.01 µg/mL | > 10 µg/mL | – |
| CC(C)c1ccc2c(c1)OC1(O)c3cccc(N)c3C(=O)C21NC(=O)c1nccn1C (stereo not drawn) [Example 252, N-(1-Amino-4b-hydroxy-7-isopropyl-10-oxo-9b,10-dihydro-4bH-indeno[1,2-b]benzofuran-9b-yl)-1-methyl-1H-imidazole-2-carboxamide] | < 0.01 µg/mL | 3.53 µg/mL (≈ 8.44 µM) | 3.64 µg/mL (≈ 8.7 µM) |
| CC(C)c1ccc2c(c1)OC1(O)c3cccc(N)c3C(=O)C21NC(=O)c1ccccc1 (stereo not drawn) [Example 153, N-(1-Amino-4b-hydroxy-7-isopropyl-10-oxo-9b,10-dihydro-4bH-indeno[1,2-b]benzofuran-9b-yl)benzamide] | < 0.01 µg/mL | 16 µg/mL (≈ 38.7 µM) | 9.02 µg/mL (≈ 21.8 µM) |
| CC(C)c1ccc2c(c1)OC1(O)c3cccc(N)c3C(=O)C21NC(=O)c1cc2ccccc2c(=O)[nH]1 (stereo not drawn) [Example 286, N-(1-Amino-4b-hydroxy-7-isopropyl-10-oxo-9b,10-dihydro-4bH-indeno[1,2-b]benzofuran-9b-yl)-1-oxo-1,2-dihydroisoquinoline-3-carboxamide] | < 0.01 µg/mL | 4.04 µg/mL (≈ 8.39 µM) | 4.28 µg/mL (≈ 8.89 µM) |
| COc1cncc(C(=O)NC23C(=O)c4c(N)cccc4C2(O)Oc2cc(C(C)C)ccc23)c1 (stereo not drawn) [Example 261, N-(1-Amino-4b-hydroxy-7-isopropyl-10-oxo-9b,10-dihydro-4bH-indeno[1,2-b]benzofuran-9b-yl)-5-methoxynicotinamide] | < 0.01 µg/mL | > 10 µg/mL | – |
| CC(C)c1ccc2c(c1)OC1(O)c3cccc(N)c3C(=O)C21NC(=O)c1cccc[n+]1[O-] (stereo not drawn) [Example 253, 2-((1-Amino-4b-hydroxy-7-isopropyl-10-oxo-9b,10-dihydro-4bH-indeno[1,2-b]benzofuran-9b-yl)carbamoyl)pyridine 1-oxide] | < 0.01 µg/mL | > 10 µg/mL | – |
| CC(C)c1ccc2c(c1)OC1(O)c3cccc(N)c3C(=O)C21NC(=O)c1nccc2ccccc12 (stereo not drawn) [Example 266, N-(1-Amino-4b-hydroxy-7-isopropyl-10-oxo-9b,10-dihydro-4bH-benzo[d]indeno[1,2-b]furan-9b-yl)isoquinoline-1-carboxamide] | < 0.01 µg/mL | > 10 µg/mL | 6.41 µg/mL (≈ 13.8 µM) |
| CC(C)c1ccc2c(c1)OC1(O)c3cccc(N)c3C(=O)C21NC(=O)c1cc2ccccc2n1C (stereo not drawn) [Example 268, N-(1-Amino-4b-hydroxy-7-isopropyl-10-oxo-9b,10-dihydro-4bH-indeno[1,2-b]benzofuran-9b-yl)-1-methyl-1H-indole-2-carboxamide] | 0.036 µg/mL (≈ 0.077 µM) | > 10 µg/mL | 9.28 µg/mL (≈ 19.8 µM) |
| Cc1c(C(=O)NC23C(=O)c4c(N)cccc4C2(O)Oc2cc(C(C)C)ccc23)oc2ccccc12 (stereo not drawn) [Example 205] | 0.036 µg/mL (≈ 0.0768 µM) | > 10 µg/mL | – |
| CC(C)c1ccc2c(c1)OC1(O)c3cccc(N)c3C(=O)C21NC=O (stereo not drawn) [Example 166, N-(1-Amino-4b-hydroxy-7-isopropyl-10-oxo-9b,10-dihydro-4bH-indeno[1,2-b]benzofuran-9b-yl)formamide] | < 0.01 µg/mL | > 10 µg/mL | – |
| CC(C)c1ccc2c(c1)OC1(O)c3cccc(N)c3C(=O)C21NC(=O)c1cccn2nnnc12 (stereo not drawn) [Example 279, N-(1-Amino-4b-hydroxy-7-isopropyl-10-oxo-9b,10-dihydro-4bH-indeno[1,2-b]benzofuran-9b-yl)tetrazolo[1,5-a]pyridine-8-carboxamide] | 0.035 µg/mL (≈ 0.0767 µM) | 4.94 µg/mL (≈ 10.8 µM) | 7.88 µg/mL (≈ 17.3 µM) |
